{
  "source": "patent US20120028929A1",
  "about": "“TETRACYCLINE STABILIZING FORMULATIONS” (ALACRITY BIOSCIENCE, INC., priority 2008, published 2012)",
  "origin": "cited, not measured here",
  "conditions": "previous studies; cited from earlier work",
  "data": [
    {"smiles": "C[C@H]1c2cccc(O)c2C(O)=C2C(=O)[C@]3(O)C(O)=C(C(N)=O)C(=O)[C@H](N(C)C)[C@@H]3[C@@H](O)[C@@H]21", "note": "[4-epidoxycycline]", "values": [
      {"measurement": "function as an antibiotic", "result": "does not function as an antibiotic"}
    ]}
  ]
}
